Source: patent US5882851A, “Cytochrome P-450 monooxygenases” (Novartis Finance Corporation, priority 1993, dated 1999)

Key:
[1] = biological target: T1, P-450TYR expressed in E. coli (Sorghum bicolor, UniProt Q43135); experiment: Substrate binding spectra of P-450TYR expressed in E. coli
T1 construct: in which the 35 N-terminal amino acids are replaced by the nine N-terminal amino acids from bovine 17α hydroxylase; nine N-terminal amino acids from bovine 17alpha-hydroxylase (replace the 35 N-terminal residues) (N); made in house; host or cells: E. coli JM109, vector pSP19g10L
Source text: Cytochrome P-450TYR in the oxidized state has a strong absorption peak at 420 nm, representing the low spin state of the iron of the heme group. The binding of a ligand to the heme group shifts the absorption maximum by changing the spin state of the iron. Binding of tyrosine at the catalytic site of cytochrome P-450TYR induces a change of the spin state of the oxidized iron from low to high spin, and thereby changes the absorption maximum from 420 nm to 390 nm producing a type I spectrum (Jefcoate, Methods in Enzymology 52:258-279, 1978). The following experimental procedure is used to obtain the substrate binding spectrum: two identical cuvettes containing a buffered solution of the isolated cytochrome P-450 are prepared. The substrate of the enzyme is added to the sample cuvette whereas the same volume of buffer is added to the other cuvette. The difference spectrum is then recorded in an SLM-Aminco DW2c spectrophotometer. The absorption difference, A390-420, is proportional to the concentration of cytochrome P-450TYR with a bound substrate at its active site. If a saturating concentration of substrate is added to the sample cuvette, the absorption difference is proportional to the concentration of the substrate specific cytochrome P-450 in the cuvettes. The saturating concentration of the substrate is determined by titrating the cytochrome P-450 sample with increasing amounts of substrate and monitoring A390-420.
A modified cytocrome P-450TYR, in which the 35 N-terminal amino acids are replaced by the nine N-terminal amino acids from bovine 17α hydroxylase is introduced into the expression vector pSP19g10L which can be obtained from Dr. Henry Barnes (La Jolla, Calif.). This plasmid contains the lac Z promoter fused with the known short leader sequence (g10L) of gene 10 from bacteriophage T7 (Olin et al, 1988). A construct containing the N-terminal amino acids from bovine 17α hydroxylase and a truncated form of the P-450TYR gene is designed using PCR mutagenesis: Oligonucleotide TYROL 1d (5'-CGGGATCCATATGGCTCTGTTATTAGCAGTTTTTCTGTCGTACCTGGCCCG-3'; SEQ ID NO 23) containing a 5' mutant cDNA sequence as well as a BamHI and NdeI restriction site is used together with oligonucleotide TYROL 3 comprising the sequence surrounding the unique BamHI restriction site downstream of the ATG start codon of the cDNA coding for P-450TYR to amplify a modified N-terminal sequence of P-450TYR. The amplification product is cut with NdeI and BamHI restriction enzymes. To introduce a HindIII site immediately downstream of the stop codon of the P-450TYR gene, oligonucleotides TYROL 2 and TYROL 4 are used in a polymerase chain reaction to obtain a C-terminal fragment of the P-450TYR gene comprising a HindIII restriction site immediately downstream of the stop codon. The amplification product is cut with PstI and HindIII restriction enzymes. The complete expression plasmid is constructed by simultaneous ligation of the N-terminal NdeI/BamHI fragment, the BamHI/PstI fragment of the P-450TYR gene and the C-terminal PstI/HindIII fragment into NdeI/HindIII cleaved pSP19g10L vector DNA. The expression vector obtained is transformed into E. coli strain JM109. Transformed E. coli produce 300 nmol to 500 nmol cytochrome P-450TYR per liter cell culture upon growth at 28° C. in the presence of 1 mM isopropyl-β-D-thiogalactopyranoside and at 125 rpm. Expression levels as high as 900 nmol per liter, equivalent to 55 mg P-450TYR per liter, have been obtained. […]

cytochrome P-450TYR = biological target: T2, cytochrome P-450TYR (Sorghum bicolor, UniProt Q43135); experiment: Reconstitution of cytochrome P-450TYR activity in DLPC micelles; format: biochemical
T2 construct: from tissue; host or cells: microsomes of etiolated Sorghum bicolor seedlings, solubilised and purified by dye columns
Source text: Reconstitution of the enzyme activity of a microsomal P-450 enzyme is accomplished by insertion of the cytochrome P-450 enzyme and the corresponding NADPH-cytochrome P-450 oxidoreductase into appropriate lipid micelles made from different commercially available lipids. Isolation of NADPH-cytochrome P-450 oxidoreductase is done according to Halkier and Moller, Plant Physiol. 96:10-17, 1990. A mixture of lipids can be used but with cytochrome P-450TYR di-lauroyl-phosphatidyl choline (DLPC) provides the best enzymatic activity. One rate limiting factor of this rate limiting reaction is the number of correctly formed complexes of cytochrome P-450TYR and NADPH-cytochrome P-450 oxidoreductase. Excess amounts of the oxidoreductase and concentrated enzyme solutions ensure a sufficient number of active complexes.
A reconstituted enzyme is obtained using the following components:
Cytochrome P-450TYR : 100 μg/ml in 50 mM potassium phosphate buffer pH 7,9
Oxidoreductase, purified from Sorghum bicolor: 100 μg/ml in 50 mM potassium phosphate buffer pH 7,9
Lipid: 10 mg/ml di-lauroyl-phosphatidyl choline, sonicated in 50 mM potassium phosphate buffer pH 7,9
^14 C-tyrosine: commercially available from Amersham; [U-^14 C]-L-tyrosine 0.5 μCi
10 μl of the lipid suspension is mixed in a glass vial with 50 μl of the cytochrome P-450TYR (0-1.5 pmol) solution. 50 μl of the oxidoreductase (0-0.15 U) solution is added and then 10 μl tyrosine solution and 10 μl NADPH solution are added and the mixture is sonicated in a Branson 5200 sonication bath for one minute. The reaction mixture is subsequently incubated for 1 hour at 30° C. At the end of the incubation period the reaction is stopped by transferring the glass vials onto ice. Radioactively labelled intermediates formed are extracted into 50 μl ehtyl acetate, applied to a silica coated TLC plate and developed using an ethyl acetate/toluene (1:5 v/v) mixture as mobile phase. The resultant product, p-hydroxyphenylacetaldehyde oxime is visualized by autoradiography of the TLC plate. Alternatively, the intermediates are analyzed by reverse-phase HPLC coupled to a Berthold radioactiviy monitor. The HPLC separation was carried out using a nucleosil 100-10C18 column isocratically eluted with 1,5% 2-propanol in 25 mM Hepes pH 7,9 (Halkier et al, J. Biol. Chem. 264:19487-19494, 1989). Control samples may be made by omitting either cytochrome P-450 oxidoreductase or NADPH.

T2 sequence (Q43135 2-558): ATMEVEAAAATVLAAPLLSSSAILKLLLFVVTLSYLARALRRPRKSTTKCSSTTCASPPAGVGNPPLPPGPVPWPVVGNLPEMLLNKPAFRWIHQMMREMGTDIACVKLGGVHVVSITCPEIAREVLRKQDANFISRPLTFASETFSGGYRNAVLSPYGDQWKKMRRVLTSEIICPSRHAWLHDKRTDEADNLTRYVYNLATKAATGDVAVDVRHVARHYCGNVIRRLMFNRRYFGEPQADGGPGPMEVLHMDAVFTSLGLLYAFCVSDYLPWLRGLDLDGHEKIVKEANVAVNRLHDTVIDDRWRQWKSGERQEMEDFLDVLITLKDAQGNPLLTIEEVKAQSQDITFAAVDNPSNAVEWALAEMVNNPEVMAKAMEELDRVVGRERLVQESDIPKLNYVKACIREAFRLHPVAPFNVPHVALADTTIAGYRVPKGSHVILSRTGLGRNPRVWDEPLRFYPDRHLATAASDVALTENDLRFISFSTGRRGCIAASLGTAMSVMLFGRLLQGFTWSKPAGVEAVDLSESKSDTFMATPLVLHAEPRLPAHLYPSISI
T1 sequence (Q43135 other isoform, or with tags, fused parts or gaps): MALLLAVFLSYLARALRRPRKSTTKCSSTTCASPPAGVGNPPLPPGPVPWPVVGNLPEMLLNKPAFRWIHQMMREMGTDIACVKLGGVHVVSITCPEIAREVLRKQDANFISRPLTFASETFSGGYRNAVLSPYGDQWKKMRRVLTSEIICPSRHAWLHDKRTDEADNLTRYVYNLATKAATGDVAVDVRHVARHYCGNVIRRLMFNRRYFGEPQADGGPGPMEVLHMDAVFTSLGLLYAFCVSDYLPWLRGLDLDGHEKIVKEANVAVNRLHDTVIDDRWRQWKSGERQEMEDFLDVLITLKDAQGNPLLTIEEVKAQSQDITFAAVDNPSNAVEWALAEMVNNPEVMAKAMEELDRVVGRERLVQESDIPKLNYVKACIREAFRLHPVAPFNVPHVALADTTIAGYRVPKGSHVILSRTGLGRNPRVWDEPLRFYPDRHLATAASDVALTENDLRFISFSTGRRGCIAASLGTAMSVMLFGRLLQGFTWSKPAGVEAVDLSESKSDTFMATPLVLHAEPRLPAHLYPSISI

Compound: N[C@@H](Cc1ccc(O)cc1)C(=O)O [tyrosine, L-tyrosine]
- molar extinction coefficient E420-390 [1]: 75.8 cm⁻¹ mM⁻¹
- turn-over number (cytochrome P-450TYR; in the absence of added salt): 228 min⁻¹
- turn-over number (cytochrome P-450TYR; in the presence of 15 mM NaCl): 198 min⁻¹
